The values below come from PubChem BioAssay (NCI).

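Where inhibition never reached the appropriate level, the endpoint shown equals the highest concentration tested. Otherwise, values were interpolated linearly from a five-concentration, 48-hour dose response in 96-well plates. At the GI50, growth is halved. TGI: concentration producing complete growth inhibition.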

Test systems include K-562 leukemia; HOP-92 NSCLC; EKVX NSCLC; RXF 393 renal; SK-MEL-5 melanoma; LOX IMVI melanoma; M14 melanoma; A549 NSCLC; RPMI-8226 leukemia.
Common to all, as to assay: growth of human tumour cells (NCI), 48 h

With `CCN(CC)C(=S)SS(C)(=O)=O`, the TGI in the assay with K-562 leukemia came out at 47.8 µM; in the assay with HOP-92 NSCLC, 54.2 µM; in the assay on EKVX NSCLC, 75.8 µM; in the assay with RXF 393 renal, 23.4 µM; in the assay with SK-MEL-5 melanoma, 49.4 µM; in the assay with LOX IMVI melanoma, 26.5 µM. The compound also gave a TGI in the assay on M14 melanoma of 32.1 µM.
On to `N#CC(/C(CCCC(=O)Nc1cccc([N+](=O)[O-])c1)=N\NC(=O)c1c(O)ccc2ccccc12)c1nc2ccccc2s1` (stereo unspecified), for which the TGI in the assay on K-562 leukemia was greater than 100 µM; in the assay with HOP-92 NSCLC, greater than 100 µM; in the assay on A549 NSCLC it was greater than 100 µM; in the assay on EKVX NSCLC, greater than 100 µM; with RXF 393 renal it was greater than 100 µM; with SK-MEL-5 melanoma, 93.1 µM. Further, the TGI with M14 melanoma is greater than 100 µM.
As to `COc1ccc(C(=O)C(C(=O)C(=O)NCCCNC(=O)C(=O)C(C(=O)c2ccc(OC)cc2)c2ccc(OC)cc2)c2ccc(OC)cc2)cc1` (stereo unspecified), the TGI in the assay with K-562 leukemia, in the assay with HOP-92 NSCLC, in the assay with A549 NSCLC, in the assay with EKVX NSCLC, with RPMI-8226 leukemia and in the assay on LOX IMVI melanoma was greater than 100 µM each time. In the assay with M14 melanoma, this compound came in with a TGI greater than 100 µM.
As for `COC1/C(=C\C(C)=O)c2ccccc2N1C(C)=O` (stereo unspecified), the TGI in the assay with K-562 leukemia, in the assay with HOP-92 NSCLC, in the assay with A549 NSCLC, in the assay with EKVX NSCLC, in the assay on RPMI-8226 leukemia and in the assay with RXF 393 renal was greater than 100 µM in each case. The compound further yielded a TGI in the assay with M14 melanoma greater than 100 µM.
`Cc1ccc(S(=O)(=O)C2CC2(Cl)Cl)cc1` (stereo unspecified): the TGI with K-562 leukemia was greater than 100 µM; in the assay on HOP-92 NSCLC it was 47.8 µM; in the assay with A549 NSCLC, greater than 100 µM; with EKVX NSCLC it was greater than 100 µM; with RXF 393 renal, 29.1 µM; with LOX IMVI melanoma it was 35.6 µM. In the assay on M14 melanoma, this compound came in with a TGI of 29.2 µM.
`O=C(N/C(=C\c1ccc(/C=C(\NC(=O)c2ccccc2)c2nc3c(O)nc(S)nc3[nH]2)cc1)c1nc2c(O)nc(S)nc2[nH]1)c1ccccc1`: the TGI in the assay on K-562 leukemia, in the assay on HOP-92 NSCLC, with A549 NSCLC, with EKVX NSCLC, in the assay on RPMI-8226 leukemia and in the assay on RXF 393 renal was greater than 100 µM each time. Moreover, the TGI in the assay with SK-MEL-5 melanoma, in the assay on LOX IMVI melanoma and in the assay with M14 melanoma was greater than 100 µM in each case.
Consider `O=C(Oc1c(Cl)cc(Cl)cc1Cl)c1ccccc1Nc1ccnc(C(F)(F)F)c1`, for which the GI50 in the assay on K-562 leukemia is 2.42 µM; in the assay on HOP-92 NSCLC, greater than 100 µM; with A549 NSCLC it was 3.9 µM; with EKVX NSCLC it was 3.31 µM; in the assay with RXF 393 renal it was 9.47 µM; with SK-MEL-5 melanoma it was 3.07 µM. Besides, the GI50 with LOX IMVI melanoma is 1.99 µM; in the assay with M14 melanoma, 2.13 µM. Moreover, the TGI with K-562 leukemia was greater than 100 µM; in the assay on HOP-92 NSCLC, greater than 100 µM; with A549 NSCLC, 71.5 µM; with EKVX NSCLC, 13 µM; with RXF 393 renal, greater than 100 µM; with SK-MEL-5 melanoma it was greater than 100 µM. For the same compound, the TGI in the assay on LOX IMVI melanoma turned out to be 5.13 µM; in the assay on M14 melanoma it was 4.99 µM.
`CCN1C(=O)N(CC)C2C1N=C(SC)N2/N=C/C=C/c1ccccc1OC` (stereo unspecified): the GI50 with K-562 leukemia was 0.361 µM; in the assay with HOP-92 NSCLC, 0.428 µM; with A549 NSCLC, 0.469 µM; in the assay on EKVX NSCLC, 0.581 µM; with RPMI-8226 leukemia, 0.37 µM; in the assay with RXF 393 renal, 0.376 µM. The GI50 with SK-MEL-5 melanoma is 0.365 µM; in the assay on LOX IMVI melanoma it was 0.564 µM; with M14 melanoma, 0.33 µM. Further, the TGI was greater than 42.8 µM in the assay on K-562 leukemia; 7.31 µM in the assay on HOP-92 NSCLC; greater than 47.8 µM in the assay with A549 NSCLC; greater than 56.6 µM in the assay on EKVX NSCLC; 3.31 µM in the assay with RPMI-8226 leukemia; 35.3 µM with RXF 393 renal. Moreover, the TGI with SK-MEL-5 melanoma was 1.51 µM; in the assay with LOX IMVI melanoma, greater than 36.7 µM; in the assay on M14 melanoma it was greater than 37.4 µM.
`CC1=C2C=CC(=O)C[C@@]2(C)CCC1`: the TGI with K-562 leukemia, in the assay with HOP-92 NSCLC, in the assay with A549 NSCLC, with EKVX NSCLC, in the assay with RPMI-8226 leukemia and in the assay with RXF 393 renal was greater than 100 µM in each case. In addition, the TGI in the assay on SK-MEL-5 melanoma, with LOX IMVI melanoma and with M14 melanoma was greater than 100 µM each time.
In the case of `CCN(CC)c1ccc(C2N3CCCCC3[C@@H]3c4[nH]c5ccccc5c4CCN23)cc1` (stereo partly specified), the TGI in the assay with K-562 leukemia is 61.3 µM; with HOP-92 NSCLC, greater than 100 µM; with A549 NSCLC, greater than 100 µM; in the assay with EKVX NSCLC, greater than 100 µM; in the assay with RPMI-8226 leukemia, greater than 100 µM; in the assay on RXF 393 renal, 44.1 µM. Moreover, the TGI in the assay on SK-MEL-5 melanoma is 31.1 µM; in the assay on M14 melanoma, 64.8 µM.
For the compound `Cc1cc(Br)ccc1N=Nc1c(C)nn(-c2ccccc2)c1-c1ccccc1`, the TGI in the assay with K-562 leukemia, in the assay with HOP-92 NSCLC, with A549 NSCLC, in the assay on EKVX NSCLC, with RPMI-8226 leukemia and in the assay with RXF 393 renal was greater than 100 µM throughout. Moreover, the TGI in the assay with SK-MEL-5 melanoma, in the assay with LOX IMVI melanoma and in the assay with M14 melanoma was greater than 100 µM in each case.
As for `CC(=O)CC(=O)Nc1ccccc1C(F)(F)F`, the TGI in the assay with K-562 leukemia, in the assay on HOP-92 NSCLC, in the assay on A549 NSCLC, with EKVX NSCLC, with RPMI-8226 leukemia and with RXF 393 renal was greater than 100 µM throughout. Besides, the TGI in the assay with SK-MEL-5 melanoma, in the assay on LOX IMVI melanoma and in the assay on M14 melanoma was greater than 100 µM each time.
Consider `CC(=O)[CH-]C(=O)c1ccccc1.CC(=O)[CH-]C(=O)c1ccccc1.CC(=O)[CH-]C(=O)c1ccccc1.[Ga+3]`, for which the GI50 with K-562 leukemia was 16.9 µM; in the assay with HOP-92 NSCLC, 29.8 µM; in the assay with A549 NSCLC, 34.4 µM; in the assay on EKVX NSCLC, 22.7 µM; with RPMI-8226 leukemia, 12.1 µM; in the assay with RXF 393 renal it was 29.1 µM. Besides, the GI50 is 23.4 µM in the assay on SK-MEL-5 melanoma, 16.3 µM in the assay on LOX IMVI melanoma and 15.5 µM in the assay on M14 melanoma. For the same compound, the TGI is 51.5 µM with K-562 leukemia; 51.9 µM with HOP-92 NSCLC; greater than 100 µM with A549 NSCLC; 57.6 µM in the assay on EKVX NSCLC; 37.1 µM in the assay on RPMI-8226 leukemia; 48 µM in the assay on RXF 393 renal. Also, the TGI with SK-MEL-5 melanoma came out at 65.6 µM; with LOX IMVI melanoma, 31.7 µM; with M14 melanoma it was 30.1 µM.
